Assay: excess molar enthalpy (molar enthalpy of mixing); xn = mol fraction of the nth substance listed
Conditions: 101.3 kPa, Liquid, Flow calorimetry

CCOC(=O)CC(=O)OCC [diethyl 1,3-propanedioate] + CC(C)O
excess molar enthalpy [kcal/mol]
Conditions | 288.2 K | 298.2 K | 313.2 K | 328.2 K
x1 = 0.0511 | 0.145 | 0.151 | 0.158 | 0.163
x1 = 0.1001 | 0.244 | 0.263 | 0.277 | 0.292
x1 = 0.1511 | 0.322 | 0.35 | 0.378 | 0.39
x1 = 0.2012 | 0.387 | 0.419 | 0.449 | 0.473
x1 = 0.2494 | 0.431 | 0.467 | 0.51 | 0.531
x1 = 0.3015 | 0.47 | 0.51 | 0.557 | 0.576
x1 = 0.3507 | 0.5 | 0.542 | 0.586 | 0.611
x1 = 0.3998 | 0.516 | 0.56 | 0.606 | 0.63
x1 = 0.4484 | 0.523 | 0.569 | 0.616 | 0.639
x1 = 0.5003 | 0.524 | 0.566 | 0.611 | 0.637
x1 = 0.5513 | 0.519 | 0.56 | 0.6 | 0.62
x1 = 0.6007 | 0.501 | 0.539 | 0.582 | 0.597
x1 = 0.6478 | 0.483 | 0.52 | 0.555 | 0.561
x1 = 0.6977 | 0.449 | 0.482 | 0.511 | 0.516
x1 = 0.7508 | 0.398 | 0.431 | 0.451 | 0.454
x1 = 0.8007 | 0.345 | 0.379 | 0.391 | 0.387
x1 = 0.8468 | 0.286 | 0.309 | 0.32 | 0.302
x1 = 0.9023 | 0.185 | 0.219 | 0.213 | 0.202
x1 = 0.9537 | 0.0963 | 0.111 | 0.104 | 0.0935

CCOC(=O)CC(=O)OCC [diethyl 1,3-propanedioate] + CCCO
excess molar enthalpy [kcal/mol]
Conditions | 288.2 K | 298.2 K | 313.2 K | 328.2 K
x1 = 0.0499 | 0.116 | 0.128 | 0.138 | 0.143
x1 = 0.1004 | 0.207 | 0.225 | 0.25 | 0.266
x1 = 0.1588 | – | 0.314 | 0.345 | 0.371
x1 = 0.209 | – | 0.376 | 0.415 | 0.447
x1 = 0.2513 | 0.381 | 0.418 | 0.458 | 0.491
x1 = 0.3 | 0.415 | 0.456 | 0.5 | 0.536
x1 = 0.3491 | 0.443 | 0.485 | 0.533 | 0.571
x1 = 0.3982 | 0.462 | 0.504 | 0.554 | 0.593
x1 = 0.451 | 0.472 | 0.515 | 0.565 | 0.603
x1 = 0.499 | 0.478 | 0.52 | 0.567 | 0.602
x1 = 0.5503 | 0.474 | 0.512 | 0.559 | 0.592
x1 = 0.6002 | 0.462 | 0.497 | 0.539 | 0.567
x1 = 0.6479 | 0.445 | 0.476 | 0.511 | 0.539
x1 = 0.6986 | 0.419 | 0.447 | 0.47 | 0.493
x1 = 0.7525 | 0.376 | 0.399 | 0.418 | 0.434
x1 = 0.797 | 0.334 | 0.352 | 0.361 | 0.375
x1 = 0.8506 | 0.269 | 0.28 | 0.284 | 0.294
x1 = 0.9003 | 0.196 | 0.197 | 0.205 | 0.204
x1 = 0.9527 | 0.105 | 0.104 | 0.103 | 0.0999

CCOC(=O)CC(=O)OCC [diethyl 1,3-propanedioate] + CCO
excess molar enthalpy [kcal/mol]
Conditions | 288.2 K | 298.2 K | 313.2 K | 328.2 K
x1 = 0.0501 | 0.0949 | 0.101 | 0.114 | 0.119
x1 = 0.1004 | 0.168 | 0.185 | 0.205 | 0.222
x1 = 0.1491 | 0.233 | 0.247 | 0.279 | 0.304
x1 = 0.1995 | 0.282 | 0.301 | 0.337 | 0.366
x1 = 0.2507 | 0.318 | 0.346 | 0.387 | 0.42
x1 = 0.2985 | 0.348 | 0.379 | 0.425 | 0.46
x1 = 0.3517 | 0.374 | 0.407 | 0.454 | 0.491
x1 = 0.399 | 0.39 | 0.425 | 0.473 | 0.51
x1 = 0.4509 | 0.401 | 0.435 | 0.486 | 0.522
x1 = 0.4985 | 0.406 | 0.442 | 0.489 | 0.527
x1 = 0.5503 | 0.404 | 0.437 | 0.485 | 0.517
x1 = 0.6013 | 0.395 | 0.428 | 0.469 | 0.499
x1 = 0.6504 | 0.38 | 0.41 | 0.448 | 0.477
x1 = 0.6967 | 0.359 | 0.386 | 0.422 | 0.442
x1 = 0.7465 | 0.328 | 0.352 | 0.38 | 0.396
x1 = 0.8002 | 0.284 | 0.302 | 0.322 | 0.333
x1 = 0.8497 | 0.232 | 0.242 | 0.259 | 0.269
x1 = 0.9027 | 0.164 | 0.172 | 0.179 | 0.186
x1 = 0.9498 | 0.0896 | 0.0946 | 0.105 | 0.101

CCOC(=O)CC(=O)OCC [diethyl 1,3-propanedioate] + CO
excess molar enthalpy [kcal/mol]
Conditions | 288.2 K | 298.2 K | 313.2 K | 328.2 K
x1 = 0.05 | 0.066 | 0.0734 | 0.081 | 0.0872
x1 = 0.0996 | 0.123 | 0.133 | 0.146 | 0.161
x1 = 0.1496 | 0.167 | 0.182 | 0.203 | 0.221
x1 = 0.2011 | 0.205 | 0.224 | 0.249 | 0.274
x1 = 0.2515 | 0.236 | 0.259 | 0.286 | 0.316
x1 = 0.3009 | 0.261 | 0.286 | 0.318 | 0.349
x1 = 0.3506 | 0.281 | 0.307 | 0.343 | 0.376
x1 = 0.3988 | 0.299 | 0.325 | 0.361 | 0.394
x1 = 0.4486 | 0.31 | 0.335 | 0.374 | 0.407
x1 = 0.4993 | 0.313 | 0.341 | 0.378 | 0.408
x1 = 0.55 | 0.315 | 0.343 | 0.376 | 0.409
x1 = 0.5995 | 0.307 | 0.337 | 0.369 | 0.396
x1 = 0.6464 | 0.3 | 0.323 | 0.355 | 0.38
x1 = 0.698 | 0.282 | 0.304 | 0.332 | 0.353
x1 = 0.7453 | 0.261 | 0.283 | 0.303 | 0.316
x1 = 0.7969 | 0.234 | 0.243 | 0.26 | 0.278
x1 = 0.8536 | 0.19 | 0.184 | 0.202 | 0.213
x1 = 0.903 | 0.139 | 0.14 | 0.144 | 0.145
x1 = 0.95 | 0.0801 | 0.0772 | 0.0719 | 0.0473

From the NIST ThermoML archive (doi:10.1021/je9003806)
